In patent US20080113956A1, “Substituted Porphyrins” (priority 1997, published 2008):
Where two headings read alike, the source gives them in different places.

Columns and labels:
DNA = experiment: SOD activity in vitro in the presence of DNA (DNA interaction); format: biochemical
Source text: The “ortho effect” also decreases the toxicity. It is well known that porphyrins, and particularly cationic porphyrins, interact with DNA and can act as DNA cleavers. This fact can be an issue in the use of metallo-porphyrins as anti-tumor drugs. The present mimetics avoid this interaction.
In order to maximize the decrease in toxicity due to interaction with DNA, two derivatives of the ortho compound have been prepared which carry four ethyl or four butyl groups (“4” and “5”, respectively).

lung injury = experiment: Bronchopulmonary dysplasia model: premature neonatal baboon in 100% oxygen; format: in vivo
Source text: Neonatal baboons were delivered prematurely by Caesarian section and then treated either with 100% oxygen or only sufficient PRN FIO2 to maintain adequate arterial oxygenation. To establish the model, thirteen 100% oxygen treated animals and twelve PRN control animals were studied. Treatment with 100% oxygen results in extensive lung injury manifested by days 9 or 10 of exposure and characterized by delayed alveolarization, lung parenchymal inflammation, and poor oxygenation. This is characteristic of the human disease, bronchopulmonary dysplasia and is thought to be mediated, at least in part, by oxidative stress on the developing neonatal lung. In a first trial of Mn TE-2-PyP, a neonatal baboon was delivered at 140 days gestation and placed in 100% oxygen. The animal received 0.5 mg/kg/24 hr Mn TE-2-PyP qd given i.v. in a continuous infusion over the entire 10 day study period.

rat brain homogenates = experiment: Iron/ascorbate mediated lipid peroxidation of rat brain homogenates (TBARS); format: biochemical; conditions: for IC50: rat brain homogenate, 30 minutes incubation with iron and ascorbate, TBARS
Protocol: Frozen adult Sprague-Dawley rat brains (Pel-Freez, Rogers, Ark.) were homogenized with a polytron (Turrax T25, Germany) in 5 volumes of ice cold 50 mM potassium phosphate at pH 7.4. Homogenate protein concentration was determined with the Coomassie Plus protein assay (Pierce, Rockford, Ill.) using bovine serum albumin as a standard. The homogenate volume was adjusted with buffer to give a final protein concentration of 10 mg/ml and frozen as aliquots at […].
Rat brain homogenates (2 mg protein) were incubated with varying concentrations of antioxidant at 37° C. for 15 minutes. Oxidation of the rat brain homogenate was initiated by the addition of 0.1 ml of a freshly prepared anaerobic stock solution containing iron(II) chloride (0.25 mM) and ascorbate (1 mM) as previously reported (Braughler et al, J. Biol. Chem. 262:10438 (1987)). Samples (final volume 1 ml) were placed in a shaking water bath at 37° C. for 30 minutes. The reactions were stopped by the addition of 0.1 ml of a stock butylated hydroxytoluene (60 mM) solution in ethanol.
The concentration of thiobarbituric acid reactive species (TBARS) in rat brain homogenates was used as a index of lipid peroxidation (Bernhem et al, J. Biol. Chem. 174:257 (1948); Witz et al, J. Free Rad. Biol. Med. 2:33 (1986); Kikugawa et al, Anal. Biochem. 202:249 (1992); Jentzsch et al, Free Rad. Biol. Med. 20P251 (1996)). Malondialdehyde standards were obtained by adding 8.2 μl of 1,1,3,3-tetramethoxypropane in 10 ml of 0.01 M HCl and mixing for 10 minutes at room temperature. This stock was further diluted in water to give standards that ranged from 0.25 to 25 μM. Samples or standards (200 μl) were acidified with 200 μl of 0.2 M phosphoric acid in 1.5 ml locking microfuge tubes. The color reaction was initiated by the addition of 25 μl of a 0.11M thiobarbituric acid solution and samples were placed in a 90° C. heating block for 45 minutes. TBARS were extracted with 0.5 ml of n-butanol by vortexing samples for 3 minute and chilling on ice for 1 minute. The samples were then centrifuged at 12,000×g for 3 minutes, 150 μl aliquots of the n-butanol phase were placed in each well of a 96-well plate and read at 535 nm in a Thermomax platereader (Molecular Devices, Sunnyvale, Calif.) at 25° C. Sample absorbencies were converted to MDA equivalencies (μM) by extrapolation from the MDA standard curve. None of the antioxidants at concentrations employed in these studies affected the reaction of MDA standards with thiobarbituric acid and reactions without TBA were used as subtraction blanks.
Data were presented as their means ±SE. The inhibitory concentration of antioxidants that decreased the degree of lipid peroxidation by 50% (IC50) and respective 95% confidence intervals (CI) were determined by fitting a sigmoidal curve with variable slope to the data (GraphPad Prizm, San Diego, Calif.).

[1] = literature comparators, cited from earlier work
mean arterial pressure = experiment: Effect on vascular tone: blood pressure in anesthetized rats; format: in vivo; conditions: rat; for duration of the hypotensive effect: i.v.
Protocol: Rats were anesthetized and a femoral vein and carotid artery were cannulated. While blood pressure was monitored by the carotid artery, Mn TM-2-PyP was injected i.v. at doses ranging from 0.1 to 3.0 mg/kg. Mean arterial pressure fell from 100-125 mmHg to 50-60 mmHg within five to ten minutes. The effect was transient, lasting up to 30 minutes at doses of 0.1 to 0.25 mg/kg. […] Scavenging of superoxide in vascular walls would potentiate the effects of nitric oxide producing hypotension.

airway hyperreactivity = experiment: Airway hyperreactivity to methacholine in ovalbumin sensitized mice; format: in vivo, mouse; conditions: intratracheal 2 μg daily for 4 days, methacholine 20, 30 and 40 mg/ml
Protocol: Mice were sensitized by intraperitoneal injection of ovalbumin twice, 14 days apart. Fourteen days after the second i.p. injection they were challenged with aerosolized ovalbumin daily for three days. Forty-eight hours after the third inhalation of ovalbumin they were given a 1 minute methacholine challenge and airway hyperreactivity followed using a Buxco body plethysmograph. Significant increases in airway resistance as measured by the PENH index occurred at doses of 20, 30 and 40 mg/ml of methacholine. […] This dose of in TM-2-PyP is equivalent to 0.8 mg/kg whole body dose.

| Compound | toxicity due to interaction with DNA, comparison between ortho derivatives (DNA; Table 2 and FIG. 3) | lung pathology: inflammation (lung injury; 0.5 mg/kg/24 hr i.v., 10 days) | clinical decompensation of the lungs (lung injury; days 9 and 10, 0.5 mg/kg/24 hr i.v.) | oxygenation index (lung injury; neonatal baboon, 100% oxygen, 0.5 mg/kg/24 hr i.v. continuous infusion, 10 days) | lung pathology: lung injury (lung injury; vs prior animals treated with 100% oxygen) | IC50 (rat brain homogenates) [µM] | kcat of comparison compounds [1] | interaction with DNA (DNA; SOD activity in vitro in the presence of DNA) | increase in potency as lipid peroxidation inhibitor, ortho vs para (rat brain homogenates; MnTM-2-PyP vs MnTM-4-PyP) [fold] | mean arterial pressure after injection (mean arterial pressure; i.v. 0.1 to 3.0 mg/kg, fell from 100-125 mmHg within five to ten minutes) | duration of the hypotensive effect (mean arterial pressure; doses of 0.1 to 0.25 mg/kg) | duration of the hypotensive effect (mean arterial pressure; doses of 1-3 mg/kg) | airway hyperreactivity (PENH index) (airway hyperreactivity) | kcat of comparison compounds ([1]; listed as MnTM-2-PyP^3−) |
| --- | --- | --- | --- | --- | --- | --- | --- | --- | --- | --- | --- | --- | --- | --- |
| CC[n+]1ccccc1-c1c2nc(c(-c3cccc[n+]3CC)c3ccc([n-]3)c(-c3cccc[n+]3CC)c3nc(c(-c4cccc[n+]4CC)c4ccc1[n-]4)C=C3)C=C2.[Mn+3] [MnTE-2-PyP^5+, manganic meso-tetrakis-(N-ethylpyridinium-2-yl)porphyrin] | significantly less toxic than the methyl derivative | absence of inflammation | no evidence of clinical decompensation | marked improvement | marked decrease |  |  |  |  |  |  |  |  |  |
| manganese(III) 5,10,15,20-tetrakis(N-methylpyridyl)porphyrin [MnTM-4-PyP^5+, reference compound] |  |  |  |  |  | 16 | 0.4 10^7 M^−1 s^−1 |  |  |  |  |  |  |  |
| manganese(III) 5,10,15,20-tetrakis(N-methylpyridyl)porphyrin [MnTM-2-PyP^5+] |  |  |  |  |  | 1 |  | greatly decreased | 15 | 50-60 mmHg | up to 30 minutes | up to two hours | statistically significant reduction | 6.0 10^7 M^−1 s^−1 |
